The target of the assay is T1, human FXR (Homo sapiens, UniProt Q96RI1).
T1 construct: expressed in transfected cells; host or cells: HEK293 cells stably carrying a 5xGal4 response element-luciferase reporter, transiently transfected with pcDNA3.1-Gal4-FXR
T1 sequence (Q96RI1 262-486 limits assumed): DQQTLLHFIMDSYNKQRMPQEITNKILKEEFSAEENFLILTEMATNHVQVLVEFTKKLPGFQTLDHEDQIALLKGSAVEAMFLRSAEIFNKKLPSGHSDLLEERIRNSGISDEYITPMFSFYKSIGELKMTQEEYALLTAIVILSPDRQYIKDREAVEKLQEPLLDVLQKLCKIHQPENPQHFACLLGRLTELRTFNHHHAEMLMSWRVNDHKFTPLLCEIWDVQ
Briefly: transient human FXR/Gal4-luciferase reporter assay. As to conditions: Gal4-hFXR fusion construct, luciferase reporter in HEK293 cells; overnight incubation; response as percentage of 8 μM GW-4064 control. It is filed as cell-based. The essentials: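 HEK293 cells stably carrying a 5×Gal4-response-element firefly luciferase reporter were transiently transfected with a Gal4 DBD-human FXR LBD fusion, then treated overnight with compounds at 37 °C. Steady-Glo luminescence, minus DMSO background, was expressed as percent of the response to 8 μM GW-4064.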
Background: A reporter such as luciferase makes a cellular process visible.

Broadly, the EC50 is the concentration that produces a half-maximal response. High values mean a need for much substance, low ones an effect from little substance.

In the case of `O=C(N(CC12CCC(c3ccc(C(F)(F)F)cn3)(CC1)CC2)c1cccc(Nc2ccc(OC(F)F)cc2)c1)C12CC(F)(C1)C2` [Example 107, N-(3-((4-(difluoromethoxy)phenyl)amino)phenyl)-3-fluoro-N-((4-(5-(trifluoromethyl)pyridin-2-yl)bicyclo[2.2.2]octan-1-yl)methyl)bicyclo[1.1.1]pentane-1-carboxamide], a half-maximal response (EC50) required 484 nM.
In the case of `O=C(N(CC12CCC(c3ccc(C(F)(F)F)cn3)(CC1)CC2)c1cccc(Nc2ccc(OC(F)F)cn2)c1)C12CC(F)(C1)C2` [Example 108, N-(3-((5-(difluoromethoxy)pyridin-2-yl)amino)phenyl)-3-fluoro-N-((4-(5-(trifluoromethyl)pyridin-2-yl)bicyclo[2.2.2]octan-1-yl)methyl)bicyclo[1.1.1]pentane-1-carboxamide] it was 629 nM; in that of `O=C(N(CC12CCC(c3ccc(C(F)(F)F)cn3)(CC1)CC2)c1cccc(Nc2ccc(C3CC3)cn2)c1)C12CC(F)(C1)C2` [Example 109, N-(3-((5-cyclopropylpyridin-2-yl)amino)phenyl)-3-fluoro-N-((4-(5-(trifluoromethyl)pyridin-2-yl)bicyclo[2..2.2]octan-1-yl)methyl)bicyclo[1.1.1]pentane-1-carboxamide], 292 nM.
Turning to `CC(C)(C)c1nc(C23CCC(CN(C(=O)C45CC(F)(C4)C5)c4cccc(O)c4)(CC2)CC3)no1` [Example 110, N-((4-(5-(tert-butyl)-1,2,4-oxadiazol-3-yl)bicyclo[2.2.2]octan-1-yl)methyl)-3-fluoro-N-(3-hydroxyphenyl)bicyclo[1.1.1]pentane-1-carboxamide], a half-maximal response (EC50) required 65 nM.
Turning to `CC(C)(C)c1nc(C23CCC(CN(C(=O)C45CC(F)(C4)C5)c4cccc(OCC#N)c4)(CC2)CC3)no1` [Example 111, N-((4-(5-(tert-butyl)-1,2,4-oxadiazol-3-yl)bicyclo[2.2.2]octan-1-yl)methyl)-N-(3-(cyanomethoxy)phenyl)-3-fluorobicyclo[1.1.1]pentane-1-carboxamide], the EC50 amounted to 618 nM.
`CC(C)(O)COc1cccc(N(CC23CCC(c4noc(C(C)(C)C)n4)(CC2)CC3)C(=O)C23CC(F)(C2)C3)c1` [Example 112, N-((4-(5-(tert-butyl)-1,2,4-oxadiazol-3-yl)bicyclo[2.2.2]octan-1-yl)methyl)-3-fluoro-N-(3-(2-hydroxy-2-methylpropoxy)phenyl)bicyclo[1.1.1]pentane-1-carboxamide] gave a concentration for a half-maximal effect (EC50) of 63 nM.
Take `CC(C)(Oc1cccc(N(CC23CCC(c4noc(C(C)(C)C)n4)(CC2)CC3)C(=O)C23CC(F)(C2)C3)c1)C(=O)O` [Example 113, 2-(3-(N-((4-(5-(tert-butyl)-1,2,4-oxadiazol-3-yl)bicyclo[2.2.2]octan-1-yl)methyl)-3-fluorobicyclo[1.1.1]pentane-1-carboxamido)phenoxy)-2-methylpropanoic acid]: the half-maximal effective concentration (EC50) is 2000 nM.
As to `N#Cc1cccc(N(CC23CCC(c4noc(C(F)(F)F)n4)(CC2)CC3)C(=O)C23CC(F)(C2)C3)c1` [Example 114, N-(3-cyanophenyl)-3-fluoro-N-((4-(5-(trifluoromethyl)-1,2,4-oxadiazol-3-yl)bicyclo[2.2.2]octan-1-yl)methyl)bicyclo[1.1.1]pentane-1-carboxamide], a half-maximal effect (EC50) was put at 80 nM.
In the case of `N#Cc1cccc(N(CC23CCC(c4noc(C(F)(F)F)n4)(CC2)CC3)C(=O)[C@H]2C[C@](O)(C(F)(F)F)C2)c1` [Example 115, (1S,3S)-N-(3-cyanophenyl)-3-hydroxy-3-(trifluoromethyl)-N-((4-(5-(trifluoromethyl)-1,2,4-oxadiazol-3-yl)bicyclo[2.2.2]octan-1-yl)methyl)cyclobutane-1-carboxamide] it was 436 nM; in that of `N#Cc1cccc(N(CC23CCC(c4noc(C(F)(F)F)n4)(CC2)CC3)C(=O)C2CCOCC2)c1` [Example 116, N-(3-cyanophenyl)-N-((4-(5-(trifluoromethyl)-1,2,4-oxadiazol-3-yl)bicyclo[2.2.2]octan-1-yl)methyl)tetrahydro-2H-pyran-4-carboxamide], 518 nM.
The same measure for `C[C@]1(O)C[C@@H](C(=O)N(CC23CCC(c4noc(C(F)(F)F)n4)(CC2)CC3)c2cccc(C#N)c2)C1` [Example 117, (1S,3S)-N-(3-cyanophenyl)-3-hydroxy-3-methyl-N-((4-(5-(trifluoromethyl)-1,2,4-oxadiazol-3-yl)bicyclo[2.2.2]octan-1-yl)methyl)cyclobutane-1-carboxamide]: 1350 nM.
For the compound `CC(C)(C)c1nc(C23CCC(CN(C(=O)C45CC(F)(C4)C5)c4cccc(Oc5ncc(OC(F)F)cn5)c4)(CC2)CC3)no1` [Example 118, N-((4-(5-(tert-butyl)-1,2,4-oxadiazol-3-yl)bicyclo[2.2.2]octan-1-yl)methyl)-N-(3-((5-(difluoromethoxy)pyrimidin-2-yl)oxy)phenyl)-3-fluorobicyclo[1.1.1]pentane-1-carboxamide], the response was half-maximal at 361 nM (EC50).
The same measure for `CC(C)(C)c1nc(C23CCC(CN(C(=O)C45CC(F)(C4)C5)c4cccc(Oc5ccc(OC(F)F)cn5)c4)(CC2)CC3)no1` [Example 119, N-((4-(5-(tert-butyl)-1,2,4-oxadiazol-3-yl)bicyclo[2.2.2]octan-1-yl)methyl)-N-(3-((5-(difluoromethoxy)pyridin-2-yl)oxy)phenyl)-3-fluorobicyclo[1.1.1]pentane-1-carboxamide]: 536 nM; for `CC(F)(F)c1nc(C23CCC(CN(C(=O)C45CC(F)(C4)C5)c4cccc(C(=O)O)c4)(CC2)CC3)no1` [Example 120, 3-(N-((4-(5-(1,1-difluoroethyl)-1,2,4-oxadiazol-3-yl)bicyclo[2.2.2]octan-1-yl)methyl)-3-fluorobicyclo[1.1.1]pentane-1-carboxamido)benzoic acid]: 4000 nM.
The same measure for `CC(C)(C)c1noc(C23CCC(CN(C(=O)C45CC(F)(C4)C5)c4ccc(F)c(C(N)=O)c4)(CC2)CC3)n1` [Example 121, N-((4-(3-(tert-butyl)-1,2,4-oxadiazol-5-yl)bicyclo[2.2.2]octan-1-yl)methyl)-N-(3-carbamoyl-4-fluorophenyl)-3-fluorobicyclo[1.1.1]pentane-1-carboxamide]: 412 nM; for `CCNC(=O)c1cc(N(CC23CCC(c4nc(C(C)(C)C)no4)(CC2)CC3)C(=O)C23CC(F)(C2)C3)ccc1F` [Example 122, N-((4-(3-(tert-butyl)-1,2,4-oxadiazol-5-yl)bicyclo[2.2.2]octan-1-yl)methyl)-N-(3-(ethylcarbamoyl)-4-fluorophenyl)-3-fluorobicyclo[1.1.1]pentane-1-carboxamide]: 123 nM.
The same measure for `CC(C)Oc1cccc(N(CC23CCC(c4nc(C(C)(C)C)no4)(CC2)CC3)C(=O)[C@H]2C[C@](O)(C(F)(F)F)C2)c1` [Example 123, (1S,3S)—N-((4-(3-(tert-butyl)-1,2,4-oxadiazol-5-yl)bicyclo[2.2.2]octan-1-yl)methyl)-3-hydroxy-N-(3-isopropoxyphenyl)-3-(trifluoromethyl)cyclobutane-1-carboxamide]: 2000 nM; for `CC(C)Oc1cccc(N(CC23CCC(c4nc(C(C)(C)C)no4)(CC2)CC3)C(=O)C23CC(F)(C2)C3)c1` [Example 124, N-((4-(3-(tert-butyl)-1,2,4-oxadiazol-5-yl)bicyclo[2.2.2]octan-1-yl)methyl)-3-fluoro-N-(3-isopropoxyphenyl)bicyclo[1.1.1]pentane-1-carboxamide]: 2000 nM.

For the origin of these results see patent US12319676B2, “Substituted amide compounds useful as farnesoid X receptor modulators” (BRISTOL-MYERS SQUIBB COMPANY, priority 2019, dated 2025).
